In patent publication US20050085553A1, “Remedies for mild recognition deflict” (priority 2001, published 2005):

Legend:
[1] = system: Fisher344 rats (27-month old, male); test: water maze test, learning deficit in old rats; type: in vivo, rat; details: 0.3 or 1.0 mg/kg orally once a day for 14 days
Experimental: An Ameliorative Effect of the Agent on Learning Deficit in Old Rats
Fisher344 rats (27-month old, male) were previously subjected to four trials of a water maze test using a pool with a diameter of 90 cm and a platform on the surface of water in the pool. The rats with remarkable disability to swim were excluded and the rest were divided into several groups. The compound A (0.3 or 1.0 mg/kg) was orally administered to the rats once a day for 14 days. On the 10th day, the rats were subjected to four trials of a water maze test using a platform on the surface of water in a pool and confirmed again that they had no difficulty in swimming ability. Starting from the next day, the rats were subjected four times a day for 3 days to a water maze test using a pool with a diameter of 120 cm and a platform submerged below the surface of water in the pool. In this test, the time required for the rats to arrive at the platform was measured. Two trials were expressed as one block. During the behavioral pharmacological test period, the drug was administered after the test.

insoluble Aβ40 = test: quantity of insoluble Aβ40 in cerebral cortex of transgenic mice with Swedish APP mutation (ELISA); type: in vivo, mouse; details: feed containing 56 ppm (about 7 mg/kg/day) for six months, 13-14 month old mice
Experimental: (§1) An Effect on Increase in Insoluble Aβ40/42 and Amyloid Plaque Formation in the Brains of Transgenic Mice with Swedish APP Mutation
(§2) Transgenic mice with Swedish amyloid precursor protein (APP) mutation (7- to 8-month old) were given solid feed containing the compound A (56 ppm) (equivalent to a dosage of about 7 mg/kg/day) or control feed for six months. After six months from the administration, one cerebral hemisphere was used for brain histological examination and the other hemisphere was used for determining the quantity of Aβ40/42. Cerebral cortex was used for measuring the quantity of Aβ. The accumulation type of insoluble Aβ40/42 protein were extracted by homogenization of the cerebral cortex in 25 times amount of Tris buffer (containing a protease inhibitor) followed by centrifugation to remove the supernatant. Then, 19 times amount of 70% formic acid was added to the insoluble precipitation and homogenized to solubilize it. After centrifugation, the supernatant was diluted to 1/20 with 1M Tris solution for neutralization and the diluted supernatant was used for determining the quantity of Aβ40/42 contained therein. Using enzyme-linked immunosorbent assay (ELISA), the quantity of accumulation-type Aβ40/42 was measured.

[2] = system: transgenic mice with Swedish APP mutation; test: general condition of the mice during the drug administration period; type: in vivo, mouse; details: feed containing 56 ppm (about 7 mg/kg/day) for six months
Experimental: as §2

amyloid plaques = test: number and area of amyloid plaques, brain sections immunostained with BAN50; type: in vivo, mouse; details: feed containing 56 ppm (about 7 mg/kg/day) for six months; sections containing dorsal hippocampus
Experimental: as §1
as §2, with “measured. […]” for “measured.”

insoluble Aβ42 = test: quantity of insoluble Aβ42 in cerebral cortex of transgenic mice with Swedish APP mutation (ELISA); type: in vivo, mouse; details: feed containing 56 ppm (about 7 mg/kg/day) for six months, 13-14 month old mice
Experimental: as §1, §2

## CN(C)CC[C@@H]1CCc2cc(OCc3ccc(-c4ccccc4)cc3)ccc2C1.Cl.O [compound A, (R)-(+)-6-(4-biphenylyl)methoxy-2-[2-(N,N-dimethylamino)ethyl]tetralin Hydrochloride Monohydrate]
[1]; final training block, compared between the groups
  swimming time for escape: significantly shortened
[1]; water maze, large pool (120 cm), submerged platform, vs old control group
  time required to arrive at the platform: significantly improved
Insoluble Aβ40
  reduction of quantity of insoluble Aβ40 in contrast to the vehicle group: about 30%
[2]
  change in the general condition of the mice including weight loss: no change
Amyloid plaques
  area of amyloid plaques, relative to the vehicle group: ~35 % of those in the vehicle group
  number of amyloid plaques, relative to the vehicle group: about 40 % of those in the vehicle group
Insoluble Aβ42
  reduction of quantity of insoluble Aβ42 in contrast to the vehicle group: about 30%
